Source: ChEMBL document CHEMBL4118122, “Identification and biological evaluation of thiazole-based inverse agonists of RORγt” (Bioorg Med Chem Lett, 2018)
pEC50, pIC50: −log10 of the molar value.

Tests used:
[1] = molecular target: 5-hydroxytryptamine receptor 3A (Homo sapiens) (UniProt P46098); test: Displacement of [3H]BRL 43694 from human recombinant 5-HT3 receptor at 10 uM after 120 mins by scintillation counting analysis relative to control
[2] = organism: Rattus norvegicus; test: Displacement of [125I]alpha-dendrotoxin from rat brain voltage-gated K channel at 10 uM after 60 mins by scintillation counting analysis relative to control
[3] = molecular target: Sodium-dependent noradrenaline transporter (Homo sapiens, UniProt P23975); test: Displacement of [3H]nisoxetine from recombinant human norepinephrine transporter at 1 uM after 120 mins by scintillation counting analysis relative to control
[4] = Displacement of [3H]D 888 from rat brain L-type calcium channel verapamil binding site after 120 mins by scintillation counting analysis
[5] = Thermodynamic solubility of the compound in fasted state simulated intestinal […] after 2 to 5 days by UV-HPLC analysis; assay type: physicochemical; details: read-out: Therm_solubility
[6] = molecular target: 5-hydroxytryptamine receptor 2B (Homo sapiens, UniProt P41595); test: Displacement of [125I]+/-DOI from human recombinant 5-HT2B receptor at 1 uM after 60 mins by scintillation counting analysis relative to control
[7] = molecular target: Muscarinic acetylcholine receptor M2 (Homo sapiens) (UniProt P08172); test: Displacement of [3H]AF-DX 384 from human recombinant M2 receptor at 1 uM after 60 mins by scintillation counting analysis relative to control
[8] = molecular target: Sodium-dependent serotonin transporter (Homo sapiens, UniProt P31645); test: Displacement of [3H]-imipramine from recombinant human 5-HT transporter at 1 uM after 60 mins by scintillation counting relative to control
[9] = molecular target: Cytochrome P450 2C9 (Homo sapiens, UniProt P11712); test: Inhibition of CYP2C9 (unknown origin); assay type: ADME
[10] = molecular target: Protein kinase C alpha type (Homo sapiens) (UniProt P17252); test: Inhibition of recombinant full length human PKCalpha expressed in baculovirus expression system at 10 uM in presence of ATP relative to control
[11] = molecular target: Neuropeptide Y receptor type 2 (Homo sapiens, UniProt P49146); test: Displacement of [125I]peptide YY from human Y2 receptor after 120 mins by scintillation counting analysis
[12] = molecular target: Neuropeptide Y receptor type 1 (Homo sapiens) (UniProt P25929); test: Displacement of [125I]peptide YY from human Y1 receptor at 10 uM after 120 mins by scintillation counting analysis relative to control
[13] = molecular target: Muscarinic acetylcholine receptor M3 (Homo sapiens, UniProt P20309); test: Displacement of [3H]4-DAMP from human recombinant M3 receptor after 60 mins by scintillation counting analysis
[14] = molecular target: 5-hydroxytryptamine receptor 6 (Homo sapiens, UniProt P50406); test: Displacement of [3H]LSD from human recombinant 5-HT6 receptor after 120 mins by scintillation counting analysis
[15] = molecular target: Insulin-like growth factor 1 receptor (Homo sapiens) (UniProt P08069); test: Inhibition of recombinant His-tagged human IGF1R cytoplasmic domain (960 to […] residues) expressed in baculovirus expression system at 10 uM in presence of ATP relative to control
[16] = molecular target: Cyclin-dependent kinase 1/cyclin B1 (Homo sapiens) (UniProt P06493+P14635); test: Inhibition of recombinant full length His-tagged human CDK1/Cyclin B expressed in baculovirus expression system at 10 uM in presence of ATP relative to control
[17] = molecular target: T1, Nuclear receptor ROR-gamma (Homo sapiens, UniProt P51449); test: Inverse agonist activity at RORgammat in human whole blood assessed as reduction in IL17A production
T1 sequence (P51449 whole entry): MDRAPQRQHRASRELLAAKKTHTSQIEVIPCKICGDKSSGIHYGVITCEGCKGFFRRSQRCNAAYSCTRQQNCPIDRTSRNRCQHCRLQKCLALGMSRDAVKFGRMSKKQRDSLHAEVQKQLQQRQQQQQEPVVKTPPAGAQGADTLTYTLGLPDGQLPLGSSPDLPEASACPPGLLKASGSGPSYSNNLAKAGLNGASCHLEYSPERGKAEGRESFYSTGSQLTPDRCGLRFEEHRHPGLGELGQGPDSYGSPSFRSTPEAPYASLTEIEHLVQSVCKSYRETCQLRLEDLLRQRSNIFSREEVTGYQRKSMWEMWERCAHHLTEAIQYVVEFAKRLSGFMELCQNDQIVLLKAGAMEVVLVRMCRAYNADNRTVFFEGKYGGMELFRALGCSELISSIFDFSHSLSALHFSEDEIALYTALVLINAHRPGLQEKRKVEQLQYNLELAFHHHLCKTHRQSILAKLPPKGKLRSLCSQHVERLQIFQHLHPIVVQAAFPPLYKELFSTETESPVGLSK

[18] = molecular target: 5-hydroxytryptamine receptor 7 (Homo sapiens, UniProt P34969); test: Displacement of [3H]LSD from human recombinant 5-HT7 receptor at 10 uM after 120 mins by scintillation counting analysis relative to control
[19] = molecular target: Adenosine receptor A2a (Homo sapiens, UniProt P29274); test: Displacement of [3H]-CGS 21680 from human recombinant adenosine A2A receptor at 10 uM after 120 mins by scintillation counting analysis relative to control
[20] = molecular target: Glycogen synthase kinase-3 beta (Homo sapiens) (UniProt P49841); test: Inhibition of recombinant full length human His-tagged GSK3beta expressed in baculovirus expression system at 10 uM in presence of ATP relative to control
[21] = molecular target: Proto-oncogene tyrosine-protein kinase receptor Ret (Homo sapiens) (UniProt P07949); test: Inhibition of recombinant GST-tagged human RET cytoplasmic domain (658 to 1114 residues) expressed in baculovirus expression system at 10 uM in presence of ATP relative to control
[22] = molecular target: Endothelin-1 receptor (Homo sapiens) (UniProt P25101); test: Displacement of [125I]-endothelin-1 from human recombinant ETA receptor at 1 uM after 120 mins by scintillation counting analysis relative to control
[23] = molecular target: D(2) dopamine receptor (Homo sapiens, UniProt P14416); test: Displacement of [3H]7-OH-DPAT from human recombinant dopamine D2S receptor at 1 uM after 60 mins by scintillation counting analysis relative to control
[24] = molecular target: Histamine H1 receptor (Homo sapiens, UniProt P35367); test: Displacement of [3H]pyrilamine from human recombinant histamine H1 receptor after 60 mins by scintillation counting analysis
[25] = Initial plasma concentration in Sprague-Dawley rat at 1 mg/kg, iv; assay type: ADME, organism-based
[26] = molecular target: Calcium/calmodulin-dependent protein kinase type II subunit alpha (Homo sapiens) (UniProt Q9UQM7); test: Inhibition of CamK2alpha (unknown origin) at 10 uM in presence of ATP relative to control
[27] = organism: Rattus norvegicus; test: Displacement of [125I]alpha-dendrotoxin from rat brain voltage-gated K channel at 1 uM after 60 mins by scintillation counting analysis relative to control
[28] = molecular target: Nociceptin receptor (Homo sapiens, UniProt P41146); test: Displacement of [3H]nociceptin from human recombinant NOP receptor at 1 uM after 60 mins by scintillation counting analysis relative to control

Chain of 5-hydroxytryptamine receptor 3A (Homo sapiens) (P46098 whole entry): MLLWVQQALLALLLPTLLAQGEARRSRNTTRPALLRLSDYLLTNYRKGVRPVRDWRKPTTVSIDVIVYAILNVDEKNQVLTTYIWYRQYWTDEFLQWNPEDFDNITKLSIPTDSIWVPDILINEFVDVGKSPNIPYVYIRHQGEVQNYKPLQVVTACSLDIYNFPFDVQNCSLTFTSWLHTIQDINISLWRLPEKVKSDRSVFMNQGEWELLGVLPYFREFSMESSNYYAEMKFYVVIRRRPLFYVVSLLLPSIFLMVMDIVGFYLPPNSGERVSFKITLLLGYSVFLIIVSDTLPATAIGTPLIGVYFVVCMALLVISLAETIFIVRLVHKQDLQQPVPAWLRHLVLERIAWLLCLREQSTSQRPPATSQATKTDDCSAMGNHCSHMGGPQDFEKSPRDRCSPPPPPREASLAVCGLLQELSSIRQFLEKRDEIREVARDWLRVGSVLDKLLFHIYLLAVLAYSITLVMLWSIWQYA
Chain of Proto-oncogene tyrosine-protein kinase receptor Ret (Homo sapiens) (P07949 whole entry, the tested form may be a part): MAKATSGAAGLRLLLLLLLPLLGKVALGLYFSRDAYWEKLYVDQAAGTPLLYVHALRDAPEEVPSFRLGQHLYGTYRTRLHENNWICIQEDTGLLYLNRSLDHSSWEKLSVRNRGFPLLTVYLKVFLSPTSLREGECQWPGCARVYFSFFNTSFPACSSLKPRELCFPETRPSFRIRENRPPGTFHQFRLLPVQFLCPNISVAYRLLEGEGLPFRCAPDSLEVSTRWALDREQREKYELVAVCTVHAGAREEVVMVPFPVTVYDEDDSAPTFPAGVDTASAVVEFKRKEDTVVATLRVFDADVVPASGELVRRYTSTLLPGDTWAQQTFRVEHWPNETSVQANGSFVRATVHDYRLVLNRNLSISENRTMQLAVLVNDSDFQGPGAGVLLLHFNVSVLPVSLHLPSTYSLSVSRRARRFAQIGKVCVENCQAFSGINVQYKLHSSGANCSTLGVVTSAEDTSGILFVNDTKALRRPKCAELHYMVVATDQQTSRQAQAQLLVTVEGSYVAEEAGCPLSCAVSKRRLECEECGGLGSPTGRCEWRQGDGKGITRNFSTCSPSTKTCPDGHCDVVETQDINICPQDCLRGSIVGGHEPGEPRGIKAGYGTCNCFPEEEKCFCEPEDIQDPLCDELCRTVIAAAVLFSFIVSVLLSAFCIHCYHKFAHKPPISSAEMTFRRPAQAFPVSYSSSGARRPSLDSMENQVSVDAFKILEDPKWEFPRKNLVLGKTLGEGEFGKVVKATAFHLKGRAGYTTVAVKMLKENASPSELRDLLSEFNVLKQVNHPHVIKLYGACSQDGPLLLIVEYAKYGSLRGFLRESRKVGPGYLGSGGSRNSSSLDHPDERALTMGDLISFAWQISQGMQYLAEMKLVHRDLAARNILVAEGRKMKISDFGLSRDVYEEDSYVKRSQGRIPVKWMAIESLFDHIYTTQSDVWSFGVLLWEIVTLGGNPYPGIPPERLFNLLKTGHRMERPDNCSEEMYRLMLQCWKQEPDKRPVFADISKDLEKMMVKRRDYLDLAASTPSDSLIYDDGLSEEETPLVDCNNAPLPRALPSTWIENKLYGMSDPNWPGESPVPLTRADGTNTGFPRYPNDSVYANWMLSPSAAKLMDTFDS
Chain of Sodium-dependent serotonin transporter (P31645 whole entry, looked up): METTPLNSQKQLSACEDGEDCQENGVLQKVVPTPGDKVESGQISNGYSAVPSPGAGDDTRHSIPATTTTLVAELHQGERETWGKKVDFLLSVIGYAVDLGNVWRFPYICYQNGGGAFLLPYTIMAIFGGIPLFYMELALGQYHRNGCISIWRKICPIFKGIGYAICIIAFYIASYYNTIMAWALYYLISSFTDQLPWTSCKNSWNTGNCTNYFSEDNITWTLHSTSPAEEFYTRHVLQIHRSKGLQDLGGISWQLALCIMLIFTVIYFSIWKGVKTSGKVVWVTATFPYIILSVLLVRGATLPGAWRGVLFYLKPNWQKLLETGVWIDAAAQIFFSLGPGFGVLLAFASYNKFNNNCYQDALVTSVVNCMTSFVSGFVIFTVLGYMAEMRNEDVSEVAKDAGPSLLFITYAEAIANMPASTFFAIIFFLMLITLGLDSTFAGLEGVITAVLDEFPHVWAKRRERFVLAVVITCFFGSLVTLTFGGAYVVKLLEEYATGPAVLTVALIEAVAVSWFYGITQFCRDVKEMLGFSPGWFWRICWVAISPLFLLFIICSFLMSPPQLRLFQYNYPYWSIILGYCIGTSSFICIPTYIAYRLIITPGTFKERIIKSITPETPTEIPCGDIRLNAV
Chain of Insulin-like growth factor 1 receptor (Homo sapiens) (P08069 31-736 limits assumed): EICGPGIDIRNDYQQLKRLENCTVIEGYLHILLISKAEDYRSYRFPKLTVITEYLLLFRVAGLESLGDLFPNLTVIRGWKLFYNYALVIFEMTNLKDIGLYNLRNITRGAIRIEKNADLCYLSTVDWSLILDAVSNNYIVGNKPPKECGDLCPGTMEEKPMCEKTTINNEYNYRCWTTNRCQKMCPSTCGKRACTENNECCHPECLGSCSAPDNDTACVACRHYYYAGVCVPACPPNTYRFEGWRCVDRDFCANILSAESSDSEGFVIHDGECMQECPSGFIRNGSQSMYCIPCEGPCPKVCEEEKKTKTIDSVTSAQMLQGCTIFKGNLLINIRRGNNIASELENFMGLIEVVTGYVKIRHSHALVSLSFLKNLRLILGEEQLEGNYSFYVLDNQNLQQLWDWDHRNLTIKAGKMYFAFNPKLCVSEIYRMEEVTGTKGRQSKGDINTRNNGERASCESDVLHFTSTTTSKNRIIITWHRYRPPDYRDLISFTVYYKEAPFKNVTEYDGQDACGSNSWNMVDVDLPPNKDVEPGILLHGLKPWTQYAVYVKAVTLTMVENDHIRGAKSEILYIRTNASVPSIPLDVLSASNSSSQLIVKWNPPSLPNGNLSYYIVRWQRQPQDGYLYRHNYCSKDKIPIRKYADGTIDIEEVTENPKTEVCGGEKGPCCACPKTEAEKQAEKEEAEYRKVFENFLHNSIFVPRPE
Chain of Insulin-like growth factor 1 receptor (Homo sapiens) (P08069 741-1367 limits assumed): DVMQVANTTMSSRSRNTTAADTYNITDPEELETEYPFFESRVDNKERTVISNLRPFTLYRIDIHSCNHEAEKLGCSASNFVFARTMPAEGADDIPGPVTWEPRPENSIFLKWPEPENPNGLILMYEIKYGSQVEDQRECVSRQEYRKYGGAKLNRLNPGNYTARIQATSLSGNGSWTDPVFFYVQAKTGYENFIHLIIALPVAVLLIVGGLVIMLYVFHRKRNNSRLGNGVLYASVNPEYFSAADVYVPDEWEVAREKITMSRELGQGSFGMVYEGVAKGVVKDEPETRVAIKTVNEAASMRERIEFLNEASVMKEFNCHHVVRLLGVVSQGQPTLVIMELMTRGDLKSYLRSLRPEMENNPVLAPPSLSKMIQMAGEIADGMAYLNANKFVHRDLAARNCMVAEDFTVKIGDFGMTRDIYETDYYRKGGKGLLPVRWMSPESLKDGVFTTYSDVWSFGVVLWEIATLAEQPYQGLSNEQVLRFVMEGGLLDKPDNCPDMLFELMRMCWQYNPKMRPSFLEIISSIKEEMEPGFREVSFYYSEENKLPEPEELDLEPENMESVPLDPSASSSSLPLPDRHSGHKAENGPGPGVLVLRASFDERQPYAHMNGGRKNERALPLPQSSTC
Chain of Sodium-dependent noradrenaline transporter (P23975 whole entry): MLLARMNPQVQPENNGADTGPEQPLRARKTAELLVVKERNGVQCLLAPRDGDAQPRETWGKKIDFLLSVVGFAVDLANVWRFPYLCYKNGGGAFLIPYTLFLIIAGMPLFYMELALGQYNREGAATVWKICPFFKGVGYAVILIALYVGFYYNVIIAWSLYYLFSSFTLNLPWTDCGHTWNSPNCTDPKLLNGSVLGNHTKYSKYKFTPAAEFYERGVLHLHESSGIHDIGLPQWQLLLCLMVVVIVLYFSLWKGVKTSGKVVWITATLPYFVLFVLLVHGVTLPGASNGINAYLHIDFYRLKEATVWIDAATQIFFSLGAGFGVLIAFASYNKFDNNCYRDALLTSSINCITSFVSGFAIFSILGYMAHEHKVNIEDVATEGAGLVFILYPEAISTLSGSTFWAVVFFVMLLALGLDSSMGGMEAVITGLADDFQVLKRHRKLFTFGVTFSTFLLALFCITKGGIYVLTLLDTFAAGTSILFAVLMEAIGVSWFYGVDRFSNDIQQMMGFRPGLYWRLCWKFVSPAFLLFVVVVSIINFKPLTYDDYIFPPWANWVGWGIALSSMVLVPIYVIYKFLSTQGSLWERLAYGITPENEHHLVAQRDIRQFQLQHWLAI
Chain of D(2) dopamine receptor (P14416 whole entry): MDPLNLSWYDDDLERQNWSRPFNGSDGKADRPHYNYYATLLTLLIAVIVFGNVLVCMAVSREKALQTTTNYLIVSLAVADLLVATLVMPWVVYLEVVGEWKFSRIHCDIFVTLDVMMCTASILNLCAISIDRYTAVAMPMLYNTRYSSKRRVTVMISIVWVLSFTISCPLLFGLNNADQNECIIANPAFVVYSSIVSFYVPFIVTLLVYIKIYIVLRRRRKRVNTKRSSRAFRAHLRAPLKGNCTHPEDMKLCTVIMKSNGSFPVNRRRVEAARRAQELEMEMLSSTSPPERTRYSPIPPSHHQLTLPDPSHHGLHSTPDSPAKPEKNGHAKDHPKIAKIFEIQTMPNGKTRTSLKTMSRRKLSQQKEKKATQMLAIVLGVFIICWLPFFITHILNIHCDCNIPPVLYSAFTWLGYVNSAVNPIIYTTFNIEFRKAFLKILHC
Chain of Neuropeptide Y receptor type 1 (Homo sapiens) (P25929 whole entry): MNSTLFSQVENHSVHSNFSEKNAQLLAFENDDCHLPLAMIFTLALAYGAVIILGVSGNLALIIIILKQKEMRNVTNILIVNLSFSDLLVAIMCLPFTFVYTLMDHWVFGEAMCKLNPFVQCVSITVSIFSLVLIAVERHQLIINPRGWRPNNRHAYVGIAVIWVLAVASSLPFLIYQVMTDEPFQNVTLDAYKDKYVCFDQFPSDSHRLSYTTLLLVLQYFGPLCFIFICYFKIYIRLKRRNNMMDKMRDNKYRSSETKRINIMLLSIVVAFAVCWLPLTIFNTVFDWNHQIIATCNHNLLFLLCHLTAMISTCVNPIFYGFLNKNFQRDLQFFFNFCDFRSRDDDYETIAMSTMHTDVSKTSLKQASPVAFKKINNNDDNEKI

CC(C)(C)NS(=O)(=O)c1ccc(-c2sc(C(=O)N[C@H]3C[C@H](C(=O)O)C3)nc2CC2CCCCC2)c2ccccc12
inhibition [1]: 12%
inhibition [2]: < 10%
inhibition [3]: < 10%
pIC50 [4]: 7.29
solubility thermodynamic [5]: > 400 µM
inhibition [6]: < 10%
inhibition [7]: < 10%
inhibition [8]: < 10%
INH [9]: 9.9 µM
inhibition [10]: -1%
pIC50 [11]: 9.55
inhibition [12]: < 10%
pIC50 [13]: 9.14
pIC50 [14]: 6.60
inhibition [15]: -10%
inhibition [16]: -3%
pEC50 [17]: 7.09
inhibition [18]: 10%
inhibition [19]: 20%
inhibition [20]: -3%
inhibition [21]: -3%
inhibition [22]: < 10%
inhibition [23]: < 10%
pIC50 [24]: 8.77
C0 [25]: 4430 ng/mL
inhibition [26]: 2%
inhibition [27]: < 10%
inhibition [28]: < 10%
